From patent US9000022B2 (Exelixis Patent Company LLC, priority 2005, dated 2015)

System: LXRα and/or LXRβ
Assay: Co-transfection assay (LXRE luciferase reporter, CV-1 cells)
Assay type: cell-based, human
Conditions: tested as described in Example 33; IC50 or EC50 for LXRα and/or LXRβ, isoform not specified; read-out: activity (IC50 or EC50 for LXR)
Summary of the method: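 CV-1 cells transiently co-transfected with full-length human LXRα or LXRβ plus RXRα, an LXRE×1-Tk-luciferase reporter and a β-galactosidase control. Compounds incubated 20 h at 37 °C (≤1% DMSO; screen at 10 μM final); luciferase read after lysis. EC50/IC50 from 8-point half-log curves (4 wells per point, ≥3 experiments); efficacy relative to a reference agonist high control and DMSO.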

Row | Compound | IC50 or EC50 (potency, activation or inhibition)
1 | CS(=O)(=O)c1cccc(-c2ccc(-n3cc(C(=O)NCCO)nc3-c3c(Cl)cccc3Cl)cc2)c1 [Example 84, 2-(2,6-dichlorophenyl)-N-(2-hydroxyethyl)-1-(3′-(methyl-sulfonyl)biphenyl-4-yl)-1H-imidazole-4-carboxamide] | < 1000 nM
2 | CC(O)(c1cn(-c2ccc(-c3cccc(S(C)(=O)=O)c3)cc2)c(-c2ccccc2C(F)(F)F)n1)C(F)(F)F (centres unmarked) [Example 67] | < 1000 nM
3 | CCS(=O)(=O)c1cccc(-c2ccc(-n3cc(C(C)(C)O)nc3-c3cccc(Cl)c3C)c(Cl)c2)c1 [Example 144, 2-(2-(3-chloro-2-methylphenyl)-1-(3-chloro-3′-(ethylsulfonyl)biphenyl-4-yl)-1H-imidazol-4-yl)propan-2-ol] | < 1000 nM
4 | CC(C)(O)c1cn(-c2ccc(-c3cccc(S(C)(=O)=O)c3)cc2)c(-c2ccccc2C(F)(F)F)n1 [Example 198, 2-{1-[3′-(methylsulfonyl)biphenyl-4-yl]-2-[2-(trifluoromethyl)phenyl]-1H-imidazol-4-yl}propan-2-ol] | < 1000 nM
5 | CC(C)(O)c1cn(-c2ccc(-c3cccc(S(C)(=O)=O)c3)cc2Cl)c(-c2c(F)cccc2Cl)n1 [Example 145, 2-(1-(3-chloro-3′-(methyl-sulfonyl)biphenyl-4-yl)-2-(2-chloro-6-fluorophenyl)-1H-imidazol-4-yl)propan-2-ol] | < 1000 nM
6 | CC(C)(O)c1cn(-c2c(Cl)cccc2Cl)c(-c2ccc(-c3cccc(S(C)(=O)=O)c3)cc2)n1 [Example 63, 2-(1-(2,6-dichlorophenyl)-2-(3′-(methylsulfonyl)biphenyl-4-yl)-1H-imidazol-4-yl)propan-2-ol] | < 1000 nM
7 | CC(C)c1ccccc1-c1nc(C(C)(C)O)cn1-c1ccc(-c2cccc(S(C)(=O)=O)c2)cc1Cl [Example 161, 2-(1-(3-chloro-3′-(methyl-sulfonyl)biphenyl-4-yl)-2-(2-isopropylphenyl)-1H-imidazol-4-yl)propan-2-ol] | < 1000 nM
8 | Cc1c(Cl)cccc1-c1nc(C(C)(C)O)cn1-c1ccc(-c2cccc(S(C)(=O)=O)c2)cc1Cl [Example 143, 2-(2-(3-chloro-2-methylphenyl)-1-(3-chloro-3′-(methylsulfonyl)biphenyl-4-yl)-1H-imidazol-4-yl)propan-2-ol] | < 1000 nM
9 | CC(C)(O)c1cn(-c2ccc(-c3cccc(S(C)(=O)=O)c3)cc2Cl)c(-c2nccc3ccccc23)n1 [Example 33, 2-(1-(3-chloro-3′-(methyl-sulfonyl)biphenyl-4-yl)-2-(isoquinolin-1-yl)-1H-imidazol-4-yl)propan-2-ol] | < 1000 nM
10 | CCNC(=O)c1cn(-c2ccc(-c3cccc(S(C)(=O)=O)c3)cc2)c(-c2c(Cl)cccc2Cl)n1 [Example 82, 2-(2,6-dichlorophenyl)-N-ethyl-1-(3′-(methylsulfonyl)biphenyl-4-yl)-1H-imidazole-4-carboxamide] | < 1000 nM
11 | CCS(=O)(=O)c1cccc(-c2ccc(-c3nc(C(C)(C)O)cn3-c3c(Cl)cccc3Cl)c(C)c2)c1 [Example 58, 2-(1-(2,6-dichlorophenyl)-2-(3′-(ethylsulfonyl)-3-methylbiphenyl-4-yl)-1H-imidazol-4-yl)propan-2-ol] | < 1000 nM
12 | CCC(O)(CC)c1cn(-c2ccc(-c3cccc(S(=O)(=O)CC)c3)cc2)c(-c2cccc(Cl)c2Cl)n1 [Example 73, 3-(2-(2,3-dichlorophenyl)-1-(3′-(ethylsulfonyl)biphenyl-4-yl)-1H-imidazol-4-yl)pentan-3-ol] | < 1000 nM
13 | Cc1cc(-c2cccc(S(C)(=O)=O)c2)ccc1-n1cc(C(C)(C)O)nc1-c1ccc(C)n1C [Example 42, 2-(2-(1,5-dimethyl-1H-pyrrol-2-yl)-1-(3-methyl-3′-(methylsulfonyl)biphenyl-4-yl)-1H-imidazol-4-yl)propan-2-ol] | < 1000 nM
14 | CCS(=O)(=O)c1cccc(-c2ccc(-n3cc(C(C)(C)O)nc3-c3cnccc3C(F)(F)F)cc2)c1 [Example 38, 2-(1-(3′-(ethylsulfonyl)biphenyl-4-yl)-2-(4-(trifluoromethyl)pyridin-3-yl)-1H-imidazol-4-yl)propan-2-ol] | > 10000 nM
15 | CC(C)(O)c1cn(-c2ccc(-c3ccc(CO)c(S(C)(=O)=O)c3)cc2)c(CCc2ccccc2Cl)n1 [Example 29] | < 1000 nM
16 | CC(C)(O)c1cn(-c2ccc(-c3ccc(CO)c(S(C)(=O)=O)c3)cc2F)c(-c2c(Cl)cccc2Cl)n1 [Example 122, 2-(2-(2,6-dichlorophenyl)-1-(3-fluoro-4′-(hydroxymethyl)-3′-(methylsulfonyl)biphenyl-4-yl)-1H-imidazol-4-yl)propan-2-ol] | < 1000 nM
17 | CCS(=O)(=O)c1cccc(-c2ccc(-n3cc(C(C)(C)O)nc3-c3cccc(Cl)c3Cl)c(Cl)c2)c1 [Example 141, 2-(1-(3-chloro-3′-(ethyl-sulfonyl)biphenyl-4-yl)-2-(2,3-dichlorophenyl)-1H-imidazol-4-yl)propan-2-ol] | < 1000 nM
18 | CCS(=O)(=O)c1cccc(-c2ccc(-n3cc(C(C)(C)O)nc3-c3c(Cl)cccc3Cl)cc2)c1 [Example 91, 2-(2-(2,6-dichlorophenyl)-1-(3′-(ethylsulfonyl)biphenyl-4-yl)-1H-imidazol-4-yl)propan-2-ol] | 1000 to 10000 nM

More lines, now with the values ahead:

Row | IC50 or EC50 (potency, activation or inhibition) | Compound
19 | < 1000 nM | COc1ccc(-c2ccc(-n3cc(C(C)(C)O)nc3Cc3cccc(Cl)c3Cl)c(Cl)c2)cc1S(C)(=O)=O [Example 457, 2-(1-(3-chloro-4′-methoxy-3′-(methyl-sulfonyl)biphenyl-4-yl)-2-(2,3-dichlorobenzyl)-1H-imidazol-4-yl)propan-2-ol]
20 | 1000 to 10000 nM | FC(F)(F)CNC(=S)c1cn(-c2ccc(Br)cc2)c(-c2ccccc2Cl)n1 [Example 396, 1-(4-bromophenyl)-2-(2-chlorophenyl)-N-(2,2,2-trifluoroethyl)-1H-imidazole-4-carbothioamide]
21 | > 10000 nM | Cc1cc(-c2ccc(C(=O)O)cc2Cl)ccc1-n1cc(C(C)(C)O)nc1-c1c(Cl)cccc1Cl [Example 466, 2-chloro-4′-(2-(2,6-dichlorophenyl)-4-(2-hydroxypropan-2-yl)-1H-imidazol-1-yl)-3′-methylbiphenyl-4-carboxylic acid]
22 | < 1000 nM | CC(C)(CO)NC(=O)c1cn(-c2ccc(-c3cccc(C(C)(C)O)c3)cc2Cl)c(-c2c(Cl)cccc2Cl)n1 [Example 480, 1-(3-chloro-3′-(2-hydroxypropan-2-yl)biphenyl-4-yl)-2-(2,6-dichlorophenyl)-N-(1-hydroxy-2-methylpropan-2-yl)-1H-imidazole-4-carboxamide]
23 | 1000 to 10000 nM | CC(C)(O)c1cn(-c2ccc(-c3cccc(S(C)(=O)=O)c3)cc2)c(-c2ccccc2F)n1 [Example 380, 2-{2-(2-fluorophenyl)-1-[3′-(methylsulfonyl)biphenyl-4-yl]-1H-imidazol-4-yl}propan-2-ol]
24 | < 1000 nM | CC(C)(O)c1nc(-c2ccc(-c3cccc(S(C)(=O)=O)c3)cc2Cl)n(-c2c(Cl)cccc2Cl)c1Cl [Example 445, 2-(5-chloro-2-(3-chloro-3′-(methylsulfonyl)biphenyl-4-yl)-1-(2,6-dichlorophenyl)-1H-imidazol-4-yl)propan-2-ol]
25 | 1000 to 10000 nM | CC(C)(O)c1cn(-c2ccc(-c3ccc(CO)cc3)cc2)c(-c2cccc(Cl)c2Cl)n1 [Example 475, 2-(2-(2,3-dichlorophenyl)-1-(4′-(hydroxymethyl)biphenyl-4-yl)-1H-imidazol-4-yl)propan-2-ol]
26 | < 1000 nM | CC(C)(O)c1cn(-c2ccc(-c3cccc(S(C)(=O)=O)c3)cc2)c(Cc2cc(Cl)ccc2F)n1 [Example 474, 2-(2-(5-chloro-2-fluorobenzyl)-1-(3′-(methylsulfonyl)biphenyl-4-yl)-1H-imidazol-4-yl)propan-2-ol]
27 | < 1000 nM | CC(C)(O)c1nc(-c2ccccc2C(F)(F)F)n(-c2ccc(-c3cccc(S(C)(=O)=O)c3)cc2)c1Br [Example 402, 2-{5-bromo-1-[3′-(methyl-sulfonyl)biphenyl-4-yl]-2-[2-(trifluoro-methyl)phenyl]-1H-imidazol-4-yl}propan-2-ol]
28 | 1000 to 10000 nM | CC(C)(O)c1cn(-c2ccc(-c3cccc(NC(=O)c4ccc5c(c4)OCO5)c3)cc2)c(-c2ccccc2Cl)n1 [Example 391, N-{4′-[2-(2-chlorophenyl)-4-(1-hydroxy-1-methylethyl)-1H-imidazol-1-yl]biphenyl-3-yl}-1,3-benzodioxole-5-carboxamide]
29 | < 1000 nM | CC(=O)c1cn(-c2ccc(-c3cccc(S(C)(=O)=O)c3)cc2)c(-c2ccccc2C(F)(F)F)n1 [Example 411, 1-{1-[3′-(methylsulfonyl)biphenyl-4-yl]-2-[2-(trifluoromethyl)phenyl]-1H-imidazol-4-yl}ethanone]
30 | < 1000 nM | CC(C)(O)c1cn(-c2ccc(-c3cccc(S(C)(=O)=O)c3)cc2)c(-c2cccc(Cl)c2Cl)n1 [Example 382, 2-{2-(2,3-dichlorophenyl)-1-[3′-(methylsulfonyl)biphenyl-4-yl]-1H-imidazol-4-yl}propan-2-ol]
31 | < 1000 nM | CS(=O)(=O)c1cccc(-c2ccc(-n3cc(C(=O)NCCF)nc3-c3c(Cl)cccc3Cl)c(Cl)c2)c1 [Example 460, 1-(3-chloro-3′-(methyl-sulfonyl)biphenyl-4-yl)-2-(2,6-dichlorophenyl)-N-(2-fluoroethyl)-1H-imidazole-4-carboxamide]
32 | < 1000 nM | NS(=O)(=O)c1cccc(-c2ccc(-n3cc(C(F)(F)F)nc3-c3ccccc3Cl)cc2)c1 [Example 360, 4′-[2-(2-chlorophenyl)-4-(trifluoro-methyl)-1H-imidazol-1-yl]biphenyl-3-sulfonamide]
